In patent publication US20200368234A1, “PHOTORECEPTOR GENE MODULATOR PHOTOREGULIN 3 FOR TREATMENT OF RETINAL DISEASE” (University of Washington, priority 2017, published 2020):

Test system: Rhodopsin
Assay: Rhodopsin mRNA expression (qPCR) in dissociated retinal cell cultures
Assay type: cell-based
Conditions: P5 mouse dissociated retinal cultures, 2 days treatment, vs DMSO and PR1
Excerpt: In order to identify compounds that may target Nr2e3 a cheminformatic strategy was used to screen hit compounds previously identified to interact with recombinant Nr2e3 in transfected CHO-S cells in a luciferase-based assay (PubChem Assay IDs: 602229, 624378, 624394, and 651849). As a secondary screen for initial hits, dissociated primary retinal cell cultures were used and assayed Rhodopsin, because it is a well-defined target of Nr2e3 signaling and is expressed at high levels exclusively in rod photoreceptors. Retina were dissociated from postnatal day 5 (P5) mice and cultured them in media containing the small molecules. After treatment for 2 days, the cells were collected for qPCR analysis and quantified Rhodopsin expression. […] This finding was confirmed with an immunofluorescence assay to examine Rhodopsin protein expression in dissociated retinal cultures from P5 mice. […]
RNA from retinas was isolated using TRIzol (Invitrogen) and cDNA was synthesized using the iScript cDNA synthesis kit (Bio-Rad). SSO Fast (Bio-Rad) was used for quantitative real-time PCR. For analysis, values were normalized to Gapdh (ΔCt) and ΔΔCt between DMSO and compound-treated samples was expressed as percent of DMSO treated controls (100*2^ΔΔCt). […]

COc1cc2nc(CN3CC=C(c4ccccc4)CC3)nc(O)c2cc1OC [PR3]
Rhodopsin mRNA expression: robust reduction in Rhodopsin compared to DMSO and PR1 treatment at all concentrations
